Results: patent US9242940B2, “N-substituted bis(fluoroalkyl)-1,4-benzodiazepinone compounds” (BRISTOL-MYERS SQUIBB COMPANY, priority 2012, dated 2016)

Assay: Metabolic Stability Half-Life Panel, human liver microsomes
Format: in vitro ADME
Details: pH 7.4, human liver microsomes, 0.5 μM compound, NADPH, 45-minute time course, read-out: HLM (t1/2, min.)
Source text: Metabolic Stability Half-Life Panel

Row | SMILES | half-life at 0.5 μM [min]
1 | NC(=O)[C@@H](CCCC(F)(F)F)[C@@H](CCC(F)(F)F)C(=O)N[C@H]1N=C(c2ccccc2)c2ccccc2N(c2ccccn2)C1=O [Example 1, (2R,3S)-N-((3S)-2-Oxo-5-phenyl-1-(2-pyridinyl)-2,3-dihydro-1H-1,4-benzodiazepin-3-yl)-3-(4,4,4-trifluorobutyl)-2-(3,3,3-trifluoropropyl)succinamide] | ≥ 67
2 | NC(=O)[C@@H](CCC(F)(F)F)[C@@H](CCC(F)(F)F)C(=O)N[C@H]1N=C(c2ccccc2)c2ccccc2N(c2ccc(Cl)cn2)C1=O [Example 2, (2R,3S)-N-((3S)-1-(5-Chloro-2-pyridinyl)-2-oxo-5-phenyl-2,3-dihydro-1H-1,4-benzodiazepin-3-yl)-2,3-bis(3,3,3-trifluoropropyl)succinamide] | ≥ 67
3 | NC(=O)[C@@H](CCC(F)(F)F)[C@@H](CCC(F)(F)F)C(=O)N[C@H]1N=C(c2ccccc2)c2cc3c(cc2N(c2ccccn2)C1=O)OCO3 [Example 3, (2R,3S)-N-((7S)-6-Oxo-9-phenyl-5-(2-pyridinyl)-6,7-dihydro-5H-[1,3]dioxolo[4,5-h][1,4]benzodiazepin-7-yl)-2,3-bis(3,3,3-trifluoropropyl)succinamide] | ≥ 67
4 | NC(=O)[C@@H](CCCC(F)(F)F)[C@@H](CCC(F)(F)F)C(=O)N[C@H]1N=C(c2ccccc2)c2ccccc2N(c2cccnc2)C1=O [Example 4, (2R,3S)-N-((3S)-2-Oxo-5-phenyl-1-(3-pyridinyl)-2,3-dihydro-1H-1,4-benzodiazepin-3-yl)-3-(4,4,4-trifluorobutyl)-2-(3,3,3-trifluoropropyl)succinamide] | ≥ 67
5 | NC(=O)[C@@H](CCC(F)(F)F)[C@@H](CCC(F)(F)F)C(=O)N[C@H]1N=C(c2ccccc2)c2ccccc2N(c2cccnc2)C1=O [Example 5, (2R,3S)-N-((3S)-2-Oxo-5-phenyl-1-(3-pyridinyl)-2,3-dihydro-1H-1,4-benzodiazepin-3-yl)-2,3-bis(3,3,3-trifluoropropyl)succinamide] | ≥ 67
6 | COc1ccc(C2=N[C@H](NC(=O)[C@H](CCC(F)(F)F)[C@H](CCC(F)(F)F)C(N)=O)C(=O)N(CC3CC3)c3ccccc32)cc1 [Example 6, (2R,3S)-N-((3S)-1-(Cyclopropylmethyl)-5-(4-methoxyphenyl)-2-oxo-2,3-dihydro-1H-1,4-benzodiazepin-3-yl)-2,3-bis(3,3,3-trifluoropropyl)succinamide] | ≥ 67
7 | COc1ccc2c(c1)C(c1ccccc1)=N[C@H](NC(=O)[C@H](CCC(F)(F)F)[C@H](CCC(F)(F)F)C(N)=O)C(=O)N2CC(F)(F)F [Example 7, (2R,3S)-N-((3S)-7-Methoxy-2-oxo-5-phenyl-1-(2,2,2-trifluoroethyl)-2,3-dihydro-1H-1,4-benzodiazepin-3-yl)-2,3-bis(3,3,3-trifluoropropyl)succinamide] | ≥ 67
8 | CC(F)(F)C[C@H](C(N)=O)[C@@H](CCC(F)(F)F)C(=O)N[C@H]1N=C(c2ccccc2)c2ccccc2N(CC2CC2)C1=O [Example 8, (2R,3S)-N-((3S)-1-(Cyclopropylmethyl)-2-oxo-5-phenyl-2,3-dihydro-1H-1,4-benzodiazepin-3-yl)-3-(2,2-difluoropropyl)-2-(3,3,3-trifluoropropyl)succinamide] | ≥ 67
9 | CC(F)(F)C[C@@H](C(=O)N[C@H]1N=C(c2ccccc2)c2ccccc2N(CC2CC2)C1=O)[C@H](CCC(F)(F)F)C(N)=O [Example 9, (2R,3S)-N-((3S)-1-(Cyclopropylmethyl)-2-oxo-5-phenyl-2,3-dihydro-1H-1,4-benzodiazepin-3-yl)-2-(2,2-difluoropropyl)-3-(3,3,3-trifluoropropyl)succinamide] | ≥ 67
